According to patent US11414384B2, “P300/CBP hat inhibitors” (Constellation Pharmaceuticals, Inc., priority 2018, dated 2022):
Like-named read-outs stand apart in the source and are kept apart here.

Biological target: p300 HAT domain (residues 1287-1666) (Homo sapiens (Human), UniProt Q09472)
Experiment: p300 HAT SPA assay (scintillation proximity assay, acetylation of biotinylated H3(1-21) peptide)
Assay type: biochemical
Conditions: average of at least 2 replicate titrations
How it was run: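 Purified p300 HAT domain reaction transferred to streptavidin plates to capture biotinylated H3(1-21) peptide, incubated 1.5 hr at RT, and read by scintillation proximity. IC50 values derived from concentration-response data.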

[1] = p300 HAT domain, read-out: P300 HAT SPA IC50
[2] = P300 HAT SPA IC50, p300 HAT domain
[3] = read-out: P300 HAT SPA IC50, p300 HAT domain

p300 HAT domain (residues 1287-1666), sequence (Q09472 1287-1666): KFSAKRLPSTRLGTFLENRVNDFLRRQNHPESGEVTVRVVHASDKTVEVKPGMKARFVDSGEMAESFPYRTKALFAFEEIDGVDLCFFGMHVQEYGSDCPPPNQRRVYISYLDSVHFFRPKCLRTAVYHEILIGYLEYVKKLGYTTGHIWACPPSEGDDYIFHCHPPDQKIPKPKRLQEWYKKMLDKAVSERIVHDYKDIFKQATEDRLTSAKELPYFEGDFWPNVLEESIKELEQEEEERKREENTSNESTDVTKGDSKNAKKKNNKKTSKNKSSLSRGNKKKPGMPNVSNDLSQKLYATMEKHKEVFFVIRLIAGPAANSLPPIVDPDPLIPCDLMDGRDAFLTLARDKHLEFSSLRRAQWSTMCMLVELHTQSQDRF

Row | SMILES | IC50 [1] | further results
1 | Cn1cc(-c2ccc3c(C(=O)C(NCCc4ccc(C#N)cc4)c4ccccc4)c[nH]c3c2F)cn1 (single isomer, unassigned) [103 Isomer 1] | 3.41 µM | 
2 | Cn1cc(-c2ccc3c(C(=O)C(NCCc4ccc(Cl)cc4)c4ccccc4)c[nH]c3c2)nn1 (single isomer, unassigned) [104 Isomer 1] | > 5 µM | 
3 | Cn1cc(-c2ccc3c(C(=O)C(NCCc4ccc(Cl)cc4)c4ccccc4)c[nH]c3c2)nn1 (single isomer, unassigned) [104 Isomer 2] | 0.388 µM | 
4 | O=C(c1c[nH]c2cc(-c3ccccn3)ccc12)C(NCCc1ccc(F)cc1)c1ccccc1 (single isomer, unassigned) [105 Isomer 1] | > 30 µM | 
5 | Cn1cnc(-c2ccc3c(C(=O)C(NCCc4ccc(Cl)cc4)c4ccccc4)c[nH]c3c2)c1 (single isomer, unassigned) [106 Isomer 1] | 0.755 µM | 
6 | Cn1cnc(-c2ccc3c(C(=O)C(NCCc4ccc(Cl)cc4)c4ccccc4)c[nH]c3c2)c1 (single isomer, unassigned) [106 Isomer 2] | 0.283 µM | 
7 | Cc1nnc(-c2ccc3c(C(=O)C(NCCc4ccc(Cl)cc4)c4ccccc4)c[nH]c3c2)o1 (single isomer, unassigned) [107 Isomer 1] | 1.9 µM | 
8 | Cc1nnc(-c2ccc3c(C(=O)C(NCCc4ccc(Cl)cc4)c4ccccc4)c[nH]c3c2)o1 (single isomer, unassigned) [107 Isomer 2] | 3.28 µM | 
9 | O=C(c1c[nH]c2cc(-c3ccccn3)ccc12)C(NCCc1ccc(Cl)cc1)c1ccccc1 (single isomer, unassigned) [108 Isomer 2] | 2.64 µM | 
10 | Cc1cnc(-c2ccc3c(C(=O)C(NCCc4ccc(Cl)cc4)c4ccccc4)c[nH]c3c2)[nH]1 (single isomer, unassigned) [109 Isomer 1] | 2.66 µM | 
11 | Cc1ncc(-c2ccc3c(C(=O)C(NCCc4ccc(Cl)cc4)c4ccccc4)c[nH]c3c2)[nH]1 (single isomer, unassigned) [110 Isomer 1] | 2.01 µM | 
12 | O=C(c1c[nH]c2cc(-c3ccncn3)ccc12)C(NCCc1ccc(Cl)cc1)c1ccccc1 (single isomer, unassigned) [111 Isomer 1] | 1.15 µM | 
13 | O=C(c1c[nH]c2cc(-c3ccncn3)ccc12)C(NCCc1ccc(Cl)cc1)c1ccccc1 (single isomer, unassigned) [111 Isomer 2] | 0.556 µM | 
14 | O=C(c1c[nH]c2cc(-c3cccnn3)ccc12)C(NCCc1ccc(Cl)cc1)c1ccccc1 (single isomer, unassigned) [112 Isomer 1] | 2.03 µM | 
15 | Cn1cnc(-c2ccc3c(C(=O)C(NCCc4ccc(C#N)cc4)c4ccccc4)c[nH]c3c2)c1 (single isomer, unassigned) [113 Isomer 1] | 1.11 µM | 
16 | Cn1cc(-c2ccc3c(C(=O)C(NCCc4ccc(C#N)cc4)c4ccccc4)c[nH]c3c2)nn1 (single isomer, unassigned) [114 Isomer 1] | 0.558 µM | 
17 | Cn1cnc(-c2ccc3c(C(=O)C(NCCc4ccc(S(N)(=O)=O)cc4)c4ccccc4)c[nH]c3c2)c1 (single isomer, unassigned) [115 Isomer 1] | 1.49 µM | 
18 | Cn1cc(-c2ccc3c(C(=O)C(NCCc4ccc(S(N)(=O)=O)cc4)c4ccccc4)c[nH]c3c2)nn1 (single isomer, unassigned) [116 Isomer 1] | > 5 µM | 
19 | O=C(c1c[nH]c2cc(-n3ccnc3)ccc12)C(NCCc1ccc(F)cc1)c1ccccc1 (single isomer, unassigned) [117 Isomer 2] | > 30 µM | 

Row | SMILES | IC50 [1] | further results
20 | O=C(c1c[nH]c2cc(-n3cccn3)ccc12)C(NCCc1ccc(F)cc1)c1ccccc1 (single isomer, unassigned) [118 Isomer 1] | > 30 µM | 
21 | NS(=O)(=O)c1ccc(CCNC(C(=O)c2c[nH]c3cc(-n4ccnc4)ccc23)c2ccccc2)cc1 (single isomer, unassigned) [119 Isomer 1] | > 5 µM | 
22 | CN1CCN(c2ccc3c(C(=O)C(NCCc4ccc(C#N)cc4)c4ccccc4)c[nH]c3n2)CC1 (single isomer, unassigned) [121 Isomer 1] | 2.2 µM | 
23 | CN1CCN(c2ccc3c(C(=O)C(NCCc4ccc(C#N)cc4)c4ccccc4)c[nH]c3c2)CC1 (single isomer, unassigned) [122 Isomer 1] | 0.325 µM | 
24 | CN1CCN(c2ccc3c(C(=O)C(NCCc4ccc(F)cc4)c4ccccc4)c[nH]c3c2)CC1 (single isomer, unassigned) [123 Isomer 1] | 7.61 µM | 
25 | CN1CCN(c2ccc3c(C(=O)C(NCCc4ccc(S(N)(=O)=O)cc4)c4ccccc4)c[nH]c3c2)CC1 (single isomer, unassigned) [124 Isomer 1] | > 5 µM | 
26 | N#Cc1ccc(CCNC(C(=O)c2c[nH]c3cc(N4CCCC4)ccc23)c2ccccc2)cc1 (single isomer, unassigned) [125 Isomer 1] | > 2 µM | 
27 | N#Cc1ccc(CCNC(C(=O)c2c[nH]c3cc(N4CCCC4)ccc23)c2ccccc2)cc1 (single isomer, unassigned) [125 Isomer 2] | 0.224 µM | 
28 | CN1CCC(Oc2ccc3c(C(=O)C(NCCc4ccc(C#N)cc4)c4ccccc4)c[nH]c3c2)CC1 (single isomer, unassigned) [126 Isomer 1] | 2.84 µM | 
29 | COCCn1cc(C(=O)C(NCCc2ccc(Cl)cc2)c2ccccc2)c2ccccc21 (single isomer, unassigned) [127 Isomer 1] |  | IC50 [2]: > 60 µM
30 | COCCn1cc(C(=O)C(NCCc2ccc(Cl)cc2)c2ccccc2)c2ccccc21 (single isomer, unassigned) [127 Isomer 2] |  | IC50 [3]: > 60 µM
31 | O=C(c1cn(CCO)c2ccccc12)C(NCCc1ccc(Cl)cc1)c1ccccc1 (single isomer, unassigned) [128 Isomer 1] |  | IC50 [2]: 42.1 µM
32 | O=C(c1cn(CCO)c2ccccc12)C(NCCc1ccc(Cl)cc1)c1ccccc1 (single isomer, unassigned) [128 Isomer 2] |  | IC50 [2]: 13.4 µM
33 | CCn1cc(C(=O)C(NCCc2ccc(Cl)cc2)c2ccccc2)c2ccccc21 (single isomer, unassigned) [129 Isomer 1] |  | IC50 [2]: 11.8 µM
34 | CCn1cc(C(=O)C(NCCc2ccc(Cl)cc2)c2ccccc2)c2ccccc21 (single isomer, unassigned) [129 Isomer 2] |  | IC50 [2]: 1.81 µM
35 | O=C(c1cn(CC(F)(F)F)c2ccccc12)C(NCCc1ccc(Cl)cc1)c1ccccc1 (single isomer, unassigned) [130 Isomer 1] |  | IC50 [2]: > 60 µM
36 | O=C(c1cn(CC(F)(F)F)c2ccccc12)C(NCCc1ccc(Cl)cc1)c1ccccc1 (single isomer, unassigned) [130 Isomer 2] |  | IC50 [3]: > 60 µM
37 | CNC(=O)c1ccc(CCN[C@H](C(=O)c2c[nH]c3cc(-c4cnn(C)c4)ccc23)c2ccccc2)cc1 (single isomer, unassigned) [131 Isomer 1] | > 30 µM | 
38 | O=C(O)c1ccc(CCNC(C(=O)c2c[nH]c3ccccc23)c2ccccc2)cc1 (single isomer, unassigned) [132 Isomer 2] | 17.9 µM | 

Row | SMILES | IC50 [1] | further results
39 | NC(=O)c1ccc(CCNC(C(=O)c2c[nH]c3ccccc23)c2ccccc2)cc1 (single isomer, unassigned) [133 Isomer 1] | 22.9 µM | 
40 | CNC(=O)c1ccc(CCNC(C(=O)c2c[nH]c3ccccc23)c2ccccc2)cc1 (single isomer, unassigned) [134 Isomer 1] | > 60 µM | 
41 | CN(C)C(=O)c1ccc(CCNC(C(=O)c2c[nH]c3ccccc23)c2ccccc2)cc1 (single isomer, unassigned) [135 Isomer 1] | > 60 µM | 
42 | CNC(=O)Cc1ccc(CCNC(C(=O)c2c[nH]c3ccccc23)c2ccccc2)cc1 (single isomer, unassigned) [136 Isomer 1] | 8.69 µM | 
43 | CNC(=O)Cc1ccc(CCNC(C(=O)c2c[nH]c3ccccc23)c2ccccc2)cc1 (single isomer, unassigned) [136 Isomer 2] | > 60 µM | 
44 | CN(C)C(=O)Cc1ccc(CCNC(C(=O)c2c[nH]c3ccccc23)c2ccccc2)cc1 (single isomer, unassigned) [137 Isomer 1] | 21.8 µM | 
45 | CN(C)C(=O)Cc1ccc(CCNC(C(=O)c2c[nH]c3ccccc23)c2ccccc2)cc1 (single isomer, unassigned) [137 Isomer 2] | > 60 µM | 
46 | Cn1cc(-c2ccc3c(C(=O)C(NCCc4ccc(C(=O)O)cc4)c4ccccc4)c[nH]c3c2)cn1 (single isomer, unassigned) [138 Isomer 2] | 4.3 µM | 
47 | Cn1cc(-c2ccc3c(C(=O)C(NCCc4ccc(C(N)=O)cc4)c4ccccc4)c[nH]c3c2)cn1 (single isomer, unassigned) [139 Isomer 1] | 8.29 µM | 
48 | CC(Cc1ccc(C(N)=O)cc1)NC(C(=O)c1c[nH]c2ccccc12)c1ccccc1 (single isomer, unassigned) [140 Isomer 1] | > 5 µM | 
49 | CC(Cc1ccc(C(N)=O)cc1)NC(C(=O)c1c[nH]c2ccccc12)c1ccccc1 (single isomer, unassigned) [140 Isomer 2] | 1.54 µM | 
50 | CC(Cc1ccc(C(N)=O)cc1)NC(C(=O)c1c[nH]c2ccccc12)c1ccccc1 (single isomer, unassigned) [140 Isomer 3] | > 5 µM | 
51 | CC(Cc1ccc(C(N)=O)cc1)NC(C(=O)c1c[nH]c2ccccc12)c1ccccc1 (single isomer, unassigned) [140 Isomer 4] | > 5 µM | 
52 | CC(CNC(C(=O)c1c[nH]c2ccccc12)c1ccccc1)c1ccc(C(N)=O)cc1 (single isomer, unassigned) [141 Isomer 1] | 0.872 µM | 
53 | CC(CNC(C(=O)c1c[nH]c2ccccc12)c1ccccc1)c1ccc(C(N)=O)cc1 (single isomer, unassigned) [141 Isomer 2] | > 5 µM | 
54 | Cn1cc(-c2ccc3c(C(=O)C(NCCc4ccc(C(=O)O)cc4Cl)c4ccccc4)c[nH]c3c2)cn1 (single isomer, unassigned) [142 Isomer 1] | 3.27 µM | 
55 | COc1cccc2c(C(=O)[C@@H](NCCc3ccc(S(N)(=O)=O)cc3)c3ccccc3)c[nH]c12 (single isomer, unassigned) [144 Isomer 1] | 9.95 µM | 
56 | COc1ccc(CCN[C@H](C(=O)c2c[nH]c3c(C(C)C)cccc23)c2ccccc2)cc1 (single isomer, unassigned) [145 Isomer 2] | > 60 µM | 
